From patent US8071600B2, “Derivatives of 4-piperazin-1-yl-4-benzo[B]thiophene suitable for the treatment of CNS disorders” (Otsuka Pharmaceutical Co., Ltd., priority 2005, dated 2011)
Structures can show the parent of a compound that is named as a salt.

| melting point | SMILES |
| --- | --- |
| 228 to 241 °C (dec.) | CCNCc1ccc(OCCCN2CCN(c3cccc4sccc34)CC2)cc1 (as salt: hydrochloride) [Example 286] |
| 224 to 232 °C (dec.) | CCN(CC)CCc1ccc(OCCCN2CCN(c3cccc4sccc34)CC2)cc1 (as salt: hydrochloride) [Example 368] |
| 247.5 to 253 °C (dec.) | COc1cc(NC=O)cc(C)c1OCCCN1CCN(c2cccc3sccc23)CC1.Cl |
| 238.5 °C (dec.) | CN(C)CCc1ccc(OCCCN2CCN(c3cccc4sccc34)CC2)cc1 (as salt: hydrochloride) [Example 382] |
| 229.5 to 232.5 °C | CCN(CC)CCNC(=O)c1ccc(OCCCN2CCN(c3cccc4sccc34)CC2)cc1 (as salt: hydrochloride) [Example 160] |
| 151 to 153.5 °C | CCNC(=O)c1csc(OCCCN2CCN(c3cccc4sccc34)CC2)n1 (as salt: hydrochloride) [Example 73] |
| 217.5 to 221 °C | COc1cc(N2CCN(C(C)=O)CC2)cc(CO)c1OCCCN1CCN(c2cccc3sccc23)CC1 (as salt: hydrochloride) [Example 1084] |
| 222.4 to 223.9 °C | Cl.c1cc(N2CCN(CCCOc3ccc4c(c3)CCN4)CC2)c2ccsc2c1 |
| 155 to 158 °C | COc1cc(N)cc(C)c1OCCCN1CCN(c2cccc3sccc23)CC1 [Example 9, 4-[3-(4-benzo[b]thiophen-4-yl-piperazin-1-yl)-propoxy]-3-methoxy-5-methylaniline] |
| 207.9 to 208.8 °C | Cl.c1cc(N2CCN(CCCOc3ccc4c(c3)NCCO4)CC2)c2ccsc2c1 |
| 174 to 176.5 °C | CN(C)C(=O)Nc1cc(OCCCN2CCN(c3cccc4sccc34)CC2)n(C)n1.Cl |
| 215 to 217 °C | O=C1Cc2ccc(OCCCCN3CCN(c4cccc5sccc45)CC3)cc2N1 (as salt: hydrochloride) [Example 127] |
| 252.9 to 254.3 °C | Cn1cnc2ccc(OCCCN3CCN(c4cccc5sccc45)CC3)cc2c1=O (as salt: hydrochloride) [Example 95] |
| 205 to 209.5 °C | CNC(=O)c1cc(OCCCN2CCN(c3cccc4sccc34)CC2)ncn1 (as salt: hydrochloride) [Example 58] |
| 114.5 to 118 °C | Cn1nc(C(=O)O)cc1OCCCN1CCN(c2cccc3sccc23)CC1 [Example 2, 5-[3-(4-benzo[b]thiophen-4-yl-piperazin-1-yl)propoxy]-1-methyl-1H-pyrazole-3-carboxylic acid] |
| 183 to 185 °C | c1cc(N2CCN(CCCCOc3ccncc3)CC2)c2ccsc2c1 (as salt: hydrochloride) [Example 80] |
| 235.5 to 237.5 °C | CCS(=O)(=O)Nc1cc(C)c(OCCCN2CCN(c3cccc4sccc34)CC2)c(OC)c1.Cl |
| 163.5 to 165 °C | CNC(=O)c1ccc(OC)c(OCCCN2CCN(c3cccc4sccc34)CC2)c1 (as salt: hydrochloride) [Example 281] |
| 109 to 110.5 °C | COC(=O)c1cc(OCCCN2CCN(c3cccc4sccc34)CC2)n(C)n1 [Example 1, methyl 5-[3-(4-benzo[b]thiophen-4-yl-piperazin-1-yl)propoxy]-1-methyl-1H-pyrazole-3-carboxylate] |
| 234 to 236 °C | Cc1ccc(OCCCN2CCN(c3cccc4sccc34)CC2)cn1 (as salt: hydrochloride) [Example 40] |
| 138.5 to 140.5 °C | C=CCn1nc(C(=O)NC)cc1OCCCN1CCN(c2cccc3sccc23)CC1 [Example 3098, 1-allyl-5-[3-(4-benzo[b]thiophen-4-yl-piperazin-1-yl)propoxy]-1H-pyrazole-3-carboxylic acid methylamide] |
| 174 to 176 °C | CCS(=O)(=O)Nc1ccc(OCCCN2CCN(c3cccc4sccc34)CC2)cc1 (as salt: hydrochloride) [Example 345] |
| 248.1 to 249.6 °C | CN1CCOc2cc(OCCCN3CCN(c4cccc5sccc45)CC3)ccc21.Cl |
| 208 to 210 °C | CC(=O)N1CCC(OCCCN2CCN(c3cccc4sccc34)CC2)CC1.Cl |
| 256.5 °C (dec.) | CCN(C)Cc1ccc(OCCCN2CCN(c3cccc4sccc34)CC2)c(C)c1 (as salt: hydrochloride) [Example 307] |
| 203.1 to 204.4 °C | CN1CNc2ccc(OCCCN3CCN(c4cccc5sccc45)CC3)cc2C1.Cl |
| 140 to 141.5 °C | CCNC(=O)c1ccnc(OCCCN2CCN(c3cccc4sccc34)CC2)c1 (as salt: hydrochloride) [Example 32] |

Further lines, the molecule ahead of its results:

| SMILES | melting point |
| --- | --- |
| CN(C)C(=O)c1csc(OCCCN2CCN(c3cccc4sccc34)CC2)n1 (as salt: hydrochloride) [Example 1113] | 178 to 182 °C |
| COc1cc(N2CCOC2=O)cc(C)c1OCCCN1CCN(c2cccc3sccc23)CC1 (as salt: hydrochloride) [Example 358] | 247.5 to 251 °C (dec.) |
| CCNC(=O)c1cc(OCCCN2CCN(c3cccc4sccc34)CC2)n(C)n1 (as salt: hydrochloride) [Example 62] | 210.5 to 214.5 °C |
| CN(C)c1cc(OCCCCN2CCN(c3cccc4sccc34)CC2)n(C)n1 (as salt: hydrochloride) [Example 1138] | 156.5 to 158.5 °C |
| CCNC(=O)c1ccc(OCCCN2CCN(c3cccc4sccc34)CC2)nc1 (as salt: hydrochloride) [Example 26] | 201.5 to 207.5 °C |
| COC(=O)N1CCN(c2cc(C)c(OCCCN3CCN(c4cccc5sccc45)CC3)c(OC)c2)C(=O)C1 (as salt: hydrochloride) [Example 1080] | 223 to 228 °C |
| COc1cc(N2CCCC2=O)cc(CO)c1OCCCN1CCN(c2cccc3sccc23)CC1 (as salt: hydrochloride) [Example 359] | 144 to 145 °C |
| COc1cc(N2CCN(C(C)=O)CC2=O)cc(C)c1OCCCN1CCN(c2cccc3sccc23)CC1 (as salt: hydrochloride) [Example 1079] | 218 to 221.5 °C |
| COc1cc(N2CCN(C(C)=O)CC2)cc(C)c1OCCCN1CCN(c2cccc3sccc23)CC1 (as salt: hydrochloride) [Example 1083] | 257 to 261 °C (dec.) |
| CCNC(=O)c1cc(OCCCN2CCN(c3cccc4sccc34)CC2)no1 (as salt: hydrochloride) [Example 72] | 219.5 to 222.5 °C (dec.) |
| CN(C)C(=O)N1CCC(OCCCN2CCN(c3cccc4sccc34)CC2)CC1 (as salt: hydrochloride) [Example 1110] | 202 to 205 °C |
| CN1CCN(Cc2ccc(OCCCN3CCN(c4cccc5sccc45)CC3)cc2)CC1 (as salt: hydrochloride) [Example 314] | 261.5 °C (dec.) |
| COc1cc(N2CCCC2)cc(C)c1OCCCN1CCN(c2cccc3sccc23)CC1 (as salt: hydrochloride) [Example 1076] | 246.5 to 249 °C (dec.) |
| O=C1Nc2cc(OCCCCN3CCN(c4cccc5sccc45)CC3)ccc2CO1 (as salt: hydrochloride) [Example 133] | 253 to 258 °C (dec.) |
| CC(=O)Nc1ccc(OCCCN2CCN(c3cccc4sccc34)CC2)cc1 (as salt: hydrochloride) [Example 343] | 283 to 285 °C |
| CN(C)C(=O)Nc1cc(OCCCCN2CCN(c3cccc4sccc34)CC2)n(C)n1.Cl | 186 to 187.5 °C |
| COC(=O)N1CCN(c2cc(C=O)c(OCCCN3CCN(c4cccc5sccc45)CC3)c(OC)c2)CC1 (as salt: hydrochloride) [Example 1086] | 225 °C (dec.) |
| COc1cc(NC(=O)CN)cc(C)c1OCCCN1CCN(c2cccc3sccc23)CC1 (as salt: hydrochloride) [Example 1060] | 268 °C (dec.) |
| COc1cc(NC=O)cc(C)c1OCCCN1CCN(c2cccc3sccc23)CC1 (as salt: hydrochloride) [Example 354] | 247.5 to 253 °C (dec.) |
| COc1cc(N2CCOC2=O)cc(CO)c1OCCCN1CCN(c2cccc3sccc23)CC1 (as salt: hydrochloride) [Example 1071] | 224 to 226.5 °C (dec.) |
| COc1cc(N2CCCCC2)cc(C)c1OCCCN1CCN(c2cccc3sccc23)CC1 (as salt: hydrochloride) [Example 1089] | 248 to 251 °C (dec.) |
